Data: patent US20250189537A1, “MULTI-FLUORESCENCE MICROFLUIDIC PLATFORM FOR EVALUATING RISKS OF SHEAR-DRIVEN ARTERIAL THROMBOSIS AND FAST ANTITHROMBOTIC DRUG SCREENING” (Board of Regents, The University of Texas System, priority 2023, published 2025)
Where a name gives a salt, the structure may show the parent alone.

Columns and labels:
[1] = tested on: biomechanical platelet aggregation; experiment: Microfluidic stenosis assay (thrombus size, single fluorescence imaging); type: cell-based, human; settings: for inhibition to the biomechanical thrombogenesis: separately and combined at twice or 20 times of human plasmatic concentrations; for thrombus formation: replacing heparin for anticoagulation
Description: Microfluidic devices with single-hump stenosis microchannels can be coated with VWF monomer solution. Heparin added whole blood is incubated with DiOC6 (3), or with a set of predetermined sensors. As used herein, a sensor is a compound or protein (e.g., antibody) that specifically binds a selected molecule, peptide, or protein present in a thrombus, the sensor can optionally include a detectable tag. A detectable tag can include but is not limited to a fluorescent tag. In certain aspects a first sensor set (Sensor Set 1) can include one or more of SZ22-FITC, Fg-Alexa Fluor® 405, 2.2.9-Alexa Fluor® 555 and AK4-Alexa Fluor® 647. In certain aspects a second sensor set (Sensor Set 2) can include SZ22-FITC, Annexin V-Pacific Blue, MBC 370.2-Alexa Fluor® 555 and PAC-1-Alexa Fluor® 647. A thrombogenic sample, e.g., blood, can be introduced via a reservoir at a microchannel inlet and perfused through the microchannel at a predetermined flow rate. In certain aspects the sample is moved through the microchannel using a pump withdraw mode via a syringe or similar apparatus connected to a microchannel outlet. The microchannel at the site of stenosis can be recorded in real time with multi-fluorescence imaging using appropriate equipment. In certain aspects the multi-fluorescence imaging is performed with a LED5 fluorescence light source and a multi-pass filter (excitation-emission: 391/32-435/30, 479/33-519/25, 554/24-594/32 and 638/31-695/58 nm). Autofluorescence of platelets can be detected in the 391/32-435/30 nm channel (Lohmann and Lohmann, Biochemical and biophysical research communications 152, 1410-1415, 1988), the signal intensity of which can be subtracted when calculating signals from other sensors.
Thrombus profiling assay: development and validation. Each microfluidic chip is composed of 10 rectangular (width×height: 200 μm×50 μm) channels with respective inlets and outlets for tubing connection (FIG. 1A, 1B). A pump drives a syringe to perfuse heparinized blood (0.5 mL) through the channel pre-coated with VWF. An 80% stenosis site stimulates biomechanical thrombogenesis (FIG. 1C). A perfusion rate of 18 μL min^−1 was selected, which creates a wall shear stress (WSS) of 857 dyn cm^−2 at the stenosis site according to fluid dynamics simulation (FIG. 1D). The same stenosis site WSS is achieved by an inlet wall shear rate of 1485 s-1 in a circular vessel with the same cross-sectional area, mimicking human arterioles (Yakusheva et al. Blood advances 6, 4834-46), human arteries during systole, and mouse arteries (Panteleev et al., Journal of thrombosis and haemostasis JTH 19, 588-95). The calculated Reynolds numbers in channels of different shapes are also within the same scale. […]

[2] = tested on: ADP or collagen-induced platelet aggregation; settings: at much lower concentrations; cited from earlier work
[3] = phase III trials; cited from earlier work

SMILES | inhibition to the biomechanical thrombogenesis [1] | inhibition of ADP or collagen-induced platelet aggregation [2] | thrombus formation [1] | patient mortality vs placebo [3]
CC(=O)Oc1ccccc1C(=O)O [aspirin] | negligible inhibition | significantly inhibit |  | 
O=C(O)CN(CCN(CC(=O)O)CC(=O)O)CC(=O)O [EDTA, ethylenediaminetetraacetic acid] |  |  | attenuated | 
COC(=O)[C@H](c1ccccc1Cl)N1CCc2sccc2C1 [clopidogrel] | negligible inhibition | significantly inhibit |  | 
CCOC(=O)CCNC(=O)N[C@H]1CCN(c2ccc(C(=N)N)cc2)C1=O [orbofiban] |  |  |  | significantly increased
O=C(O)CC(O)(CC(=O)O)C(=O)O [citrate, sodium citrate] |  |  | attenuated | 
